Experimental data reported in ChEMBL document CHEMBL1141504, “An efficient route into synthetically challenging bridged achiral 1,2,4,5-tetraoxanes with antimalarial activity” (Bioorg Med Chem Lett, 2008).
pIC50: −log10 of the molar value.

Columns and labels:
[1] = Partition coefficient, log P of the compound; format: physicochemical; details: octanol/water
Plasmodium falciparum = assay: Antimalarial activity against Plasmodium falciparum 3D7; format: functional, organism-based

SMILES	logP [1]	pIC50 (Plasmodium falciparum)
C=C1COOC2(CCC(Cc3ccc(C(F)(F)F)cc3)CC2)OOC1	4.95	7.37
c1ccc(CC2CCC3(CC2)OOCCCOO3)cc1	3.93	7.29
C=C1COOC2(CCC(Cc3ccc(C(=O)OC)cc3)CC2)OOC1	4.05	6.93
C=C1COOC2(CCC(Cc3ccc(F)cc3)CC2)OOC1	4.2	7.36
CO[C@H]1O[C@@H]2O[C@@]3(C)CC[C@H]4[C@H](C)CC[C@@H]([C@H]1C)[C@@]24OO3 [ARTEMETHER]		8.49
CCOC(=O)CC1CCC2(CC1)OOCCCOO2	2.2	6.93
COC(=O)c1ccc(CC2CCC3(CC2)OOCCCOO3)cc1	3.75	7.03
O=C(CC1CCC2(CC1)OOCCCOO2)N1CCOCC1	1.16	6.16
FC(F)(F)c1ccc(CC2CCC3(CC2)OOCCCOO3)cc1	4.79	7.28
Fc1ccc(CC2CCC3(CC2)OOCCCOO3)cc1	4.01	7.17
CS(=O)(=O)c1ccc(CC2CCC3(CC2)OOCCCOO3)cc1	2.65	
N#Cc1ccc(CC2CCC3(CC2)OOCCCOO3)cc1	3.46	7.00
C[C@@H]1CC[C@H]2[C@@H](C)C(=O)O[C@@H]3O[C@@]4(C)CC[C@@H]1[C@]32OO4 [ARTEMISININ]		8.04
